Measurements as given in PubChem BioAssay AID256 (DTP/NCI, 2004).
Toxic doses and inconclusive results are not listed.

System: CD2F1 mice, L1210 leukemia ip, survival T/C
Assay: NCI In Vivo Anticancer Drug Screen. Data for tumor model L1210 Leukemia (intraperitoneal) in CD2F1 (CDF1) mice
Settings: higher = longer survival
Procedure, shortened: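 Tumor-bearing mice (transplanted tumor) were split into treated and vehicle control groups, and the measured endpoint of each treated group was divided by that of its vehicle controls.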

[1] = endpoint: mean survival time, dose: 50.0 mg/kg/injection, schedule: Q01DX009 (ip), vehicle: Klucel (hydroxypropylcellulose) (HPC)
[2] = endpoint: mean survival time, dose: 50.0 mg/kg/injection, schedule: Q01DX009 (ip), vehicle: saline with Tween-80
[3] = endpoint: mean survival time, dose: 200.0 mg/kg/injection, schedule: Q04DX003 (ip), vehicle: saline with Tween-80
[4] = endpoint: mean survival time, dose: 400.0 mg/kg/injection, schedule: Q04DX003 (ip), vehicle: saline with Tween-80
[5] = endpoint: mean survival time, dose: 100.0 mg/kg/injection, schedule: Q04DX003 (ip), vehicle: saline with Tween-80
[6] = endpoint: mean survival time, dose: 100.0 mg/kg/injection, schedule: Q01DX009 (ip), vehicle: saline with Tween-80

CCN(CC)CCNc1ccc(CO)c2sc3ccccc3c(=O)c12
T/C (endpoint: mean survival time, dose: 4.0 mg/kg/injection, schedule: Q03HX008 (ip), vehicle: saline): 101 % of control
T/C (endpoint: mean survival time, dose: 4.0 mg/kg/injection, schedule: Q03HX016 (ip), vehicle: saline): 104 % of control
T/C (endpoint: mean survival time, dose: 4.0 mg/kg/injection, schedule: Q03HX024 (ip), vehicle: saline): 110 % of control
T/C (endpoint: mean survival time, dose: 8.0 mg/kg/injection, schedule: Q03HX008 (ip), vehicle: saline): 112 % of control
T/C (endpoint: mean survival time, dose: 8.0 mg/kg/injection, schedule: Q03HX016 (ip), vehicle: saline): 108 % of control
T/C (endpoint: mean survival time, dose: 8.0 mg/kg/injection, schedule: Q03HX024 (ip), vehicle: saline): 117 % of control
T/C (endpoint: mean survival time, dose: 12.5 mg/kg/injection, schedule: Q01DX009 (ip), vehicle: Klucel (hydroxypropylcellulose) (HPC)): 106 % of control
T/C (endpoint: mean survival time, dose: 16.0 mg/kg/injection, schedule: Q03HX008 (ip), vehicle: saline): 105 % of control
T/C (endpoint: mean survival time, dose: 16.0 mg/kg/injection, schedule: Q03HX016 (ip), vehicle: saline): 110 % of control
T/C (endpoint: mean survival time, dose: 16.0 mg/kg/injection, schedule: Q03HX024 (ip), vehicle: saline): 151 % of control
T/C (endpoint: mean survival time, dose: 25.0 mg/kg/injection, schedule: Q01DX009 (ip), vehicle: Klucel (hydroxypropylcellulose) (HPC)): 102 % of control
T/C (endpoint: mean survival time, dose: 32.0 mg/kg/injection, schedule: Q01DX001 (ip), vehicle: saline): 107 % of control
T/C (endpoint: mean survival time, dose: 32.0 mg/kg/injection, schedule: Q01DX001 (sc), vehicle: saline): 116 % of control
T/C (endpoint: mean survival time, dose: 32.0 mg/kg/injection, schedule: Q03HX016 (ip), vehicle: saline): 117 % of control
T/C (endpoint: mean survival time, dose: 32.0 mg/kg/injection, schedule: Q03HX024 (ip), vehicle: saline): 184 % of control
T/C (endpoint: mean survival time, dose: 32.0 mg/kg/injection, schedule: Q04DX003 (ip), vehicle: saline): 116 % of control
T/C (endpoint: mean survival time, dose: 32.0 mg/kg/injection, schedule: Q08DX002 (ip), vehicle: saline): 114 % of control
T/C [1]: 120 % of control
T/C (endpoint: mean survival time, dose: 64.0 mg/kg/injection, schedule: Q01DX001 (ip), vehicle: saline): 108 % of control
T/C (endpoint: mean survival time, dose: 64.0 mg/kg/injection, schedule: Q01DX001 (sc), vehicle: saline): 111 % of control
T/C (endpoint: mean survival time, dose: 64.0 mg/kg/injection, schedule: Q01DX009 (ip), vehicle: saline): 174 % of control
T/C (endpoint: mean survival time, dose: 64.0 mg/kg/injection, schedule: Q01DX009 (oral), vehicle: saline): 121 % of control
T/C (endpoint: mean survival time, dose: 64.0 mg/kg/injection, schedule: Q01DX009 (sc), vehicle: saline): 156 % of control
T/C (endpoint: mean survival time, dose: 64.0 mg/kg/injection, schedule: Q03HX008 (ip), vehicle: saline): 150 % of control
T/C (endpoint: mean survival time, dose: 64.0 mg/kg/injection, schedule: Q03HX016 (ip), vehicle: saline): 151 % of control
T/C (endpoint: mean survival time, dose: 64.0 mg/kg/injection, schedule: Q03HX024 (ip), vehicle: saline): 94 % of control
T/C (endpoint: mean survival time, dose: 64.0 mg/kg/injection, schedule: Q08DX002 (ip), vehicle: saline): 113 % of control
T/C (endpoint: mean survival time, dose: 120.0 mg/kg/injection, schedule: Q01DX001 (ip), vehicle: acetone): 113 % of control
T/C (endpoint: mean survival time, dose: 120.0 mg/kg/injection, schedule: Q01DX009 (ip), vehicle: acetone): 118 % of control
T/C (endpoint: mean survival time, dose: 128.0 mg/kg/injection, schedule: Q01DX001 (ip), vehicle: saline): 110 % of control
T/C (endpoint: mean survival time, dose: 128.0 mg/kg/injection, schedule: Q01DX001 (sc), vehicle: saline): 115 % of control
T/C (endpoint: mean survival time, dose: 128.0 mg/kg/injection, schedule: Q01DX009 (ip), vehicle: saline): 101 % of control
T/C (endpoint: mean survival time, dose: 128.0 mg/kg/injection, schedule: Q01DX009 (sc), vehicle: saline): 111 % of control
T/C (endpoint: mean survival time, dose: 128.0 mg/kg/injection, schedule: Q08DX002 (ip), vehicle: saline): 111 % of control
T/C (endpoint: mean survival time, dose: 180.0 mg/kg/injection, schedule: Q01DX001 (ip), vehicle: acetone): 106 % of control
T/C (endpoint: mean survival time, dose: 256.0 mg/kg/injection, schedule: Q01DX001 (ip), vehicle: saline): 122 % of control
T/C (endpoint: mean survival time, dose: 256.0 mg/kg/injection, schedule: Q01DX001 (oral), vehicle: saline): 110 % of control
T/C (endpoint: mean survival time, dose: 256.0 mg/kg/injection, schedule: Q01DX001 (sc), vehicle: saline): 115 % of control
T/C (endpoint: mean survival time, dose: 256.0 mg/kg/injection, schedule: Q01DX009 (oral), vehicle: saline): 124 % of control
T/C (endpoint: mean survival time, dose: 400.0 mg/kg/injection, schedule: Q01DX001 (ip), vehicle: acetone): 120 % of control
T/C (endpoint: mean survival time, dose: 512.0 mg/kg/injection, schedule: Q01DX001 (oral), vehicle: saline): 117 % of control
T/C (endpoint: median survival time, dose: 10.0 mg/kg/injection, schedule: Q01DX009 (ip), vehicle: water): 102 % of control
T/C (endpoint: median survival time, dose: 40.0 mg/kg/injection, schedule: Q01DX009 (ip), vehicle: water): 150 % of control
T/C (endpoint: median survival time, dose: 160.0 mg/kg/injection, schedule: Q01DX009 (ip), vehicle: water): 103 % of control

COC1CCC(/C=C(\C#N)C2CCC([N+](=O)[O-])CC2)CC1 (configuration not stated)
T/C (endpoint: mean survival time, dose: 25.0 mg/kg/injection, schedule: Q01DX009 (ip), vehicle: saline with Tween-80): 86 % of control
T/C [2]: 88 % of control
T/C (endpoint: mean survival time, dose: 400.0 mg/kg/injection, schedule: Q01DX009 (ip), vehicle: saline with Tween-80): 94 % of control

CCC(=O)c1ccccc1NC(C)=O
T/C [3]: 95 % of control
T/C [4]: 97 % of control

Cc1ccc(OP(=O)(c2ccccc2)c2ccccc2)cc1
T/C [5]: 98 % of control
T/C [3]: 100 % of control
T/C [4]: 100 % of control

NC(N)=N/N=C/c1ccncc1
T/C (endpoint: mean survival time, dose: 100.0 mg/kg/injection, schedule: Q04DX002 (ip), vehicle: saline): 92 % of control

CC(C)(C#N)OC(=O)Nc1cccc(Cl)c1
T/C (endpoint: mean survival time, dose: 100.0 mg/kg/injection, schedule: Q04DX002 (ip), vehicle: saline with Tween-80): 93 % of control
T/C (endpoint: mean survival time, dose: 200.0 mg/kg/injection, schedule: Q04DX002 (ip), vehicle: saline with Tween-80): 90 % of control
T/C (endpoint: mean survival time, dose: 400.0 mg/kg/injection, schedule: Q04DX002 (ip), vehicle: saline with Tween-80): 86 % of control

COc1ccc(C(=O)c2ccc(OC)cc2)cc1
T/C [1]: 100 % of control
T/C (endpoint: mean survival time, dose: 100.0 mg/kg/injection, schedule: Q01DX009 (ip), vehicle: Klucel (hydroxypropylcellulose) (HPC)): 93 % of control
T/C (endpoint: mean survival time, dose: 200.0 mg/kg/injection, schedule: Q01DX009 (ip), vehicle: Klucel (hydroxypropylcellulose) (HPC)): 86 % of control

CCCCCCCCCCCCCCCCSc1cccc(C)c1
T/C (endpoint: mean survival time, dose: 100.0 mg/kg/injection, schedule: Q04DX003 (ip), vehicle: Klucel (hydroxypropylcellulose) (HPC)): 95 % of control
T/C (endpoint: mean survival time, dose: 200.0 mg/kg/injection, schedule: Q04DX003 (ip), vehicle: Klucel (hydroxypropylcellulose) (HPC)): 92 % of control
T/C (endpoint: mean survival time, dose: 400.0 mg/kg/injection, schedule: Q04DX003 (ip), vehicle: Klucel (hydroxypropylcellulose) (HPC)): 98 % of control

O=CO.[Tl]
T/C (endpoint: mean survival time, dose: 5.0 mg/kg/injection, schedule: Q01DX001 (ip), vehicle: saline): 104 % of control
T/C (endpoint: mean survival time, dose: 10.0 mg/kg/injection, schedule: Q01DX001 (ip), vehicle: saline): 98 % of control
T/C (endpoint: mean survival time, dose: 20.0 mg/kg/injection, schedule: Q01DX001 (ip), vehicle: saline): 95 % of control
T/C (endpoint: mean survival time, dose: 40.0 mg/kg/injection, schedule: Q01DX001 (ip), vehicle: saline): 98 % of control
T/C (endpoint: mean survival time, dose: 80.0 mg/kg/injection, schedule: Q01DX001 (ip), vehicle: saline): 104 % of control

C/C=C/CC1CCCCC1
T/C [2]: 100 % of control
T/C [6]: 100 % of control
T/C (endpoint: mean survival time, dose: 200.0 mg/kg/injection, schedule: Q01DX009 (ip), vehicle: saline with Tween-80): 100 % of control

CCc1cc(CC)c(CC)c(Br)c1CC
T/C [2]: 98 % of control
T/C [6]: 108 % of control
T/C [5]: 98 % of control
T/C [3]: 101 % of control

O=C(CC(O)(C(F)(F)F)C(F)(F)F)CC(O)(C(F)(F)F)C(F)(F)F
T/C (endpoint: mean survival time, dose: 5.0 mg/kg/injection, schedule: Q01DX001 (ip), vehicle: saline with Tween-80): 94 % of control
T/C (endpoint: mean survival time, dose: 5.0 mg/kg/injection, schedule: Q04DX003 (ip), vehicle: saline): 102 % of control
T/C (endpoint: mean survival time, dose: 10.0 mg/kg/injection, schedule: Q04DX003 (ip), vehicle: saline): 92 % of control

Fc1ccc(NC(=S)S)cc1
T/C (endpoint: mean survival time, dose: 6.25 mg/kg/injection, schedule: Q01DX009 (ip), vehicle: saline): 86 % of control
T/C (endpoint: mean survival time, dose: 12.5 mg/kg/injection, schedule: Q01DX009 (ip), vehicle: saline): 114 % of control
T/C (endpoint: mean survival time, dose: 25.0 mg/kg/injection, schedule: Q01DX009 (ip), vehicle: saline): 93 % of control

COC(=O)C1C(O)C(C)C(O)OC1C(C)C(O)C(C)/C=C\C=C(/C)C(=O)Nc1c(C)c(OC(C)=O)c2c(c1O)C(=O)C(C)=C1OCOC(/C(C)=C/C(C)=O)=C12 (configuration not stated)
T/C (endpoint: mean survival time, dose: 100.0 mg/kg/injection, schedule: Q01DX009 (ip), vehicle: saline): 97 % of control
T/C (endpoint: mean survival time, dose: 200.0 mg/kg/injection, schedule: Q01DX009 (ip), vehicle: saline): 101 % of control
